From patent publication US9133122B2, “Amide compounds, compositions and uses thereof” (EVOTEC AG, priority 2008, dated 2015)
pIC50: −log10 of the molar value.

What was measured:
hP2X2/3H = target: T1, hP2X2/3H (Homo sapiens, UniProt P56373+Q9UBL9); test: Calcium uptake assay (Ca influx), P2X antagonist assay, P2X2/3 heteromer; assay type: cell-based; details: inhibition of agonist-induced calcium influx
T1 construct: expressed in transfected cells
T1 sequence (P56373 1-397): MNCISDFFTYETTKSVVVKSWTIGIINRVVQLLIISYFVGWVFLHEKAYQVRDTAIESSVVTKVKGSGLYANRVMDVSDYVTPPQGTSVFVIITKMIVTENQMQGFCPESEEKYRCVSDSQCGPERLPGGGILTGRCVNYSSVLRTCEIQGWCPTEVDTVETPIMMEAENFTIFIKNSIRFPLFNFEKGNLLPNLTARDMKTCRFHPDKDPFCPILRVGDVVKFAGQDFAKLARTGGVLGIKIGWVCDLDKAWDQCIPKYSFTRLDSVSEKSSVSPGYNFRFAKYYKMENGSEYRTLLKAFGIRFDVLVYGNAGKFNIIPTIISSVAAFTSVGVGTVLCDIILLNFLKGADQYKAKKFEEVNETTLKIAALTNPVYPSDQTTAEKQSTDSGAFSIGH
T1 sequence (Q9UBL9 1-471): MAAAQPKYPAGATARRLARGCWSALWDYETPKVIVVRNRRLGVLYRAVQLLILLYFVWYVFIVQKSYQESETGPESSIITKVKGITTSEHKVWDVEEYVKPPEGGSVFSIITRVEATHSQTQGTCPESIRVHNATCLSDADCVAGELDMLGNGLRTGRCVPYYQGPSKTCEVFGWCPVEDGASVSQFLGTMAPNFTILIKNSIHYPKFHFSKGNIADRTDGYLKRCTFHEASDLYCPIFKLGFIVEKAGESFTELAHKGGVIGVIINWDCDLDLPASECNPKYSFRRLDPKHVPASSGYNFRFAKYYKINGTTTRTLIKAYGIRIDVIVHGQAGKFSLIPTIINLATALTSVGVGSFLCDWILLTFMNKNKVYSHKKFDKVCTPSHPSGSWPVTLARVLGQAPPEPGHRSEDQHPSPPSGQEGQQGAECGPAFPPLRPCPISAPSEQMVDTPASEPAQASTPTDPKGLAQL
In short: (§1)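 Receptors expressed in HEK293 or 1321N1 cells, transiently or stably; heteromer from P2X3 transfected into P2X2-stable line. Fluo-4-type dye in HBSS; compound pre-treatment 1–30 min, then agonist (αβMeATP, ATP or analog) at EC50-90. FLIPR peak minus baseline fluorescence; IC50 by 4-parameter fit, 1 pM–10 μM.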

hP2X3 = target: T2, hP2X3 (Homo sapiens, UniProt P56373); test: Calcium uptake assay (Ca influx), P2X antagonist assay, P2X3 homomer; assay type: cell-based; details: inhibition of agonist-induced calcium influx
T2 construct: expressed in transfected cells
T2 sequence (P56373 1-397): T1 sequence (P56373 1-397)
In short: as §1

pIC50 (hP2X2/3H)	pIC50 (hP2X3)	Compound
7.59	7.93	Cc1ccc(-c2cc(C(=O)NCc3ccc(C)nc3)cc(N3CCC[C@@H]3CO)c2)nc1 [Compound 63, 3-((R)-2-Hydroxymethyl-pyrrolidin-1-yl)-5-(5-methyl-pyridin-2-yl)-N-(6-methyl-pyridin-3-ylmethyl)-benzamide]
7.89	8.05	Cc1ccc(-c2cc(C(=O)NCc3ccc(C)nc3)cc(-c3ccccc3CO)c2)nc1 [Compound 13, 2′-Hydroxymethyl-5-(5-methyl-pyridin-2-yl)-biphenyl-3-carboxylic acid (6-methyl-pyridin-3-ylmethyl)-amide]
7.87	7.84	COCc1ccccc1-c1cc(C(=O)N[C@H](C)c2cnc(C)nc2)cc(-c2ccc(C)cn2)c1 [Compound 45, 2′-Methoxymethyl-5-(5-methyl-pyridin-2-yl)-biphenyl-3-carboxylic acid [(R)-1-(2-methyl-pyrimidin-5-yl)-ethyl]-amide]
7.59	7.14	Cc1ccc(-c2cc(C(=O)N[C@H](C)CN3CCOCC3)cc(-c3c(F)cccc3C(F)(F)F)c2)nc1 [Compound 83, 2′-Fluoro-5-(5-methyl-pyridin-2-yl)-6′-trifluoromethyl-biphenyl-3-carboxylic acid ((R)-1-methyl-2-morpholin-4-yl-ethyl)-amide]
7.26	7.14	Cc1ccc(-c2cc(C(=O)NCc3ccc(C)nc3)cc(-c3ccccc3F)c2)nc1 [Compound 15, 2′-Fluoro-5-(5-methyl-pyridin-2-yl)-biphenyl-3-carboxylic acid (6-methyl-pyridin-3-ylmethyl)-amide]
7.28	7.58	Cc1ccc(-c2cc(C(=O)N[C@H](C)c3ccc(C)nc3)cc(N3CCCCC3=O)c2)cc1 [Compound 40, (R)-4′-Methyl-N-(1-(6-methylpyridin-3-yl)ethyl)-5-(2-oxopiperidin-1-yl)biphenyl-3-carboxamide]
7.73	7.65	Cc1ccc(-c2cc(C(=O)N[C@H](C)CN3CCOCC3)cc(-c3cnccc3C#N)c2)c(C#N)c1 [Compound 87, (R)-2′-Cyano-5-(4-cyanopyridin-3-yl)-4′-methyl-N-(1-morpholinopropan-2-yl)biphenyl-3-carboxamide]
5.38	6.37	Cc1ccc(-c2cc(C(=O)NCc3ccc(C)nc3)cc(-c3cccc(N(C)C)c3)c2)cc1 [Compound 23, 3″-Dimethylamino-4-methyl-[1,1′;3′,1″]terphenyl-5′-carboxylic acid (6-methyl-pyridin-3-ylmethyl)-amide]
7.45	7.29	Cc1ccc(-c2cc(C(=O)NCc3ccc(C)nc3)cc(-c3ccc(C)cc3C#N)c2)nc1 [Compound 35, 2′-Cyano-4′-methyl-5-(5-methyl-pyridin-2-yl)-biphenyl-3-carboxylic acid (6-methyl-pyridin-3-ylmethyl)-amide]
7.15	7.27	COc1ccccc1-c1cc(C(=O)NCc2ccc(C)nc2)cc(-c2ccc(C)cn2)c1 [Compound 18, 2′-Methoxy-5-(5-methyl-pyridin-2-yl)-biphenyl-3-carboxylic acid (6-methyl-pyridin-3-ylmethyl)-amide]
5.97	6.93	Cc1ccc(-c2cc(C(=O)NCc3ccc(C)nc3)cc(N3CCNCC3=O)c2)c(C#N)c1 [Compound 65, 2′-Cyano-4′-methyl-5-(2-oxo-piperazin-1-yl)-biphenyl-3-carboxylic acid (6-methyl-pyridin-3-ylmethyl)-amide]
6.38	6.47	Cc1ccc(-c2cc(C(=O)NCc3ccc(C)nc3)cc(-c3ccccc3F)c2)cc1 [Compound 6, 2″-Fluoro-4-methyl-[1,1′;3′,1″]terphenyl-5′-carboxylic acid (6-methyl-pyridin-3-ylmethyl)-amide]
6.14	7.07	Cc1ccc(-c2cc(C(=O)NCc3cnc(C)nc3)cc(N3CCNCC3=O)c2)c(C#N)c1 [Compound 66, 2′-Cyano-4′-methyl-5-(2-oxo-piperazin-1-yl)-biphenyl-3-carboxylic acid (2-methyl-pyrimidin-5-ylmethyl)-amide]
5.97	6.31	COc1cccc(-c2cc(C(=O)NCc3ccc(C)nc3)cc(-c3ccc(C)cc3)c2)c1 [Compound 11, 3″-Methoxy-4-methyl-[1,1′;3′,1″]terphenyl-5′-carboxylic acid (6-methyl-pyridin-3-ylmethyl)-amide]
6.57	7.02	COc1ncc(-c2cc(C(=O)NCc3ccc(C)nc3)cc(-c3ccc(C)cn3)c2)cn1 [Compound 16, 3-(2-Methoxy-pyrimidin-5-yl)-5-(5-methyl-pyridin-2-yl)-N-(6-methyl-pyridin-3-ylmethyl)-benzamide]
7.32	7.34	Cc1ccc(-c2cc(C(=O)NCc3ccc(C)nc3)cc(N3CCC[C@@H]3CO)c2)cc1 [Compound 62, 5-((R)-2-Hydroxymethyl-pyrrolidin-1-yl)-4′-methyl-biphenyl-3-carboxylic acid (6-methyl-pyridin-3-ylmethyl)-amide]
6.65	7.09	Cc1ccc(-c2cc(C(=O)NCc3cnc(C)nc3)cc(N3CCCCC3=O)c2)cc1 [Compound 38]
5.97	6.51	COc1ccccc1-c1cc(C(=O)NCc2ccc(C)nc2)cc(-c2ccc(C)cc2)c1 [Compound 4, 2″-Methoxy-4-methyl-[1,1′;3′,1″]terphenyl-5′-carboxylic acid (6-methyl-pyridin-3-ylmethyl)-amide]
6.53	7.20	COCc1ccccc1-c1cc(C(=O)N[C@H](C)c2cnc(C)nc2)cc(-c2ccccn2)c1 [Compound 53, 2′-Methoxymethyl-5-pyridin-2-yl-biphenyl-3-carboxylic acid [(R)-1-(2-methyl-pyrimidin-5-yl)-ethyl]-amide]
6.38	6.32	COc1ccc(-c2cc(C(=O)NCc3ccc(C)nc3)cc(-c3ccc(C)cc3)c2)c(OC)c1 [Compound 9, 2″,4″-Dimethoxy-4-methyl-[1,1′;3′,1″]terphenyl-5′-carboxylic acid (6-methyl-pyridin-3-ylmethyl)-amide]
6.37	7.59	Cc1ccc(-c2cc(C(=O)NCc3cnc(C)nc3)cc(N3CCCC3=O)c2)cc1 [Compound 50, 4′-Methyl-5-(2-oxo-pyrrolidin-1-yl)-biphenyl-3-carboxylic acid (2-methyl-pyrimidin-5-ylmethyl)-amide]
7.48	7.78	Cc1ccc(-c2cc(C(=O)N[C@H](C)c3cnc(C)nc3)cc(N3CCCC3=O)c2)cc1 [Compound 48, 4′-Methyl-5-(2-oxo-pyrrolidin-1-yl)-biphenyl-3-carboxylic acid [(R)-1-(2-methyl-pyrimidin-5-yl)-ethyl]-amide]
6.00	7.24	Cc1ccc(-c2cc(C(=O)NCc3ccc(C)nc3)cc(-c3ccccn3)c2)nc1 [Compound 32, 3-(5-Methyl-pyridin-2-yl)-N-(6-methyl-pyridin-3-ylmethyl)-5-pyridin-2-yl-benzamide]
6.43	7.00	Cc1ccc(-c2cc(C(=O)N[C@H](C)CN3CCOCC3)cc(-c3cccc(F)c3F)c2)nc1 [Compound 77, (R)-2′,3′-difluoro-5-(5-methylpyridin-2-yl)-N-(1-morpholinopropan-2-yl)biphenyl-3-carboxamide]
5.14	6.66	COCC(CO)NC(=O)c1cc(-c2ccc(C)cn2)cc(-c2cccc(F)c2F)c1 (centres unmarked) [Compound 78, 2′,3′-Difluoro-5-(5-methyl-pyridin-2-yl)-biphenyl-3-carboxylic acid (2-hydroxy-1-methoxymethyl-ethyl)-amide]
5.87	7.50	Cc1ccc(-c2cc(C(=O)N[C@@H](C)CO)cc(-c3cccc(F)c3F)c2)c(C#N)c1 [Compound 85, 2-Cyano-2″,3″-difluoro-4-methyl-[1,1′;3′,1″]terphenyl-5′-carboxylic acid ((S)-2-hydroxy-1-methyl-ethyl)-amide]
6.07	7.99	Cc1ccc(-c2cc(C(=O)N[C@@H](C)CO)cc(-c3cnccc3C#N)c2)nc1 [Compound 84, 3-(4-Cyano-pyridin-3-yl)-N-((S)-2-hydroxy-1-methyl-ethyl)-5-(5-methyl-pyridin-2-yl)-benzamide]
6.62	7.21	Cc1ccc(-c2cc(C(=O)NCc3ccc(C)nc3)cc(-c3ccncc3)c2)nc1 [Compound 19, 3-(5-Methyl-pyridin-2-yl)-N-(6-methyl-pyridin-3-ylmethyl)-5-pyridin-4-yl-benzamide]
